From ChEMBL document CHEMBL1201862, “PubChem BioAssay data set” (2004)
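96-well plates; 48 h exposure; 5 concentrations. Endpoints by linear interpolation between flanking doses. Not reached: highest tested concentration assigned. At the GI50, growth is halved.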 Calls of active or inactive are those of the source. No stated cut-off is given here; in the data, active = GI50 up to about 1.1 µM and inactive = higher.

Key:
Assay in all cases: NCI anticancer screen, dose series, 48 h
BT-549 = test system: BT-549
ACHN = test system: ACHN
HOP-62 = test system: HOP-62
DU-145 = test system: DU-145
SN12C = test system: SN12C
SK-MEL-28 = test system: SK-MEL-28
T47D = test system: T47D
LXFL 529 = test system: LXFL 529
A549 = test system: A549
HOP-92 = test system: HOP-92
EKVX = test system: EKVX
MCF7 = test system: MCF7
SR = test system: SR
MDA-N = test system: MDA-N
MOLT-4 = test system: MOLT-4
HCC 2998 = test system: HCC 2998
SF-268 = test system: SF-268
IGROV-1 = test system: IGROV-1
Hs-578T = test system: Hs-578T
KM-20L2 = test system: KM-20L2
RPMI-8226 = test system: RPMI-8226
SNB-75 = test system: SNB-75
XF498 = test system: XF498
LOX IMVI = test system: LOX IMVI
NCI-H226 = test system: NCI-H226
HCT-116 = test system: HCT-116
UO-31 = test system: UO-31
COLO 205 = test system: COLO 205
K562 = test system: K562
UACC-62 = test system: UACC-62
U-251 = test system: U-251
SF-295 = test system: SF-295
SNB-19 = test system: SNB-19
OVCAR-4 = test system: OVCAR-4
CAKI-1 = test system: CAKI-1
SF-539 = test system: SF-539
NCI-H522 = test system: NCI-H522
NCI-H23 = test system: NCI-H23
DMS-114 = test system: DMS-114
SW-620 = test system: SW-620
OVCAR-3 = test system: OVCAR-3
HT-29 = test system: HT-29
KM12 = test system: KM12
TK-10 = test system: TK-10
HOP-18 = test system: HOP-18
MDA-MB-435 = test system: MDA-MB-435
HCT-15 = test system: HCT-15
RXF 393 = test system: RXF 393
DLD-1 = test system: DLD-1
SNB-78 = test system: SNB-78
OVCAR-8 = test system: OVCAR-8
SK-MEL-5 = test system: SK-MEL-5
M14 = test system: M14
Malme-3M = test system: Malme-3M
786-0 = test system: 786-0
NCI-H460 = test system: NCI-H460
MDA-MB-231 = test system: MDA-MB-231
SK-MEL-2 = test system: SK-MEL-2
SK-OV-3 = test system: SK-OV-3
A498 = test system: A498
PC-3 = test system: PC-3
RXF 631 = test system: RXF 631
M19-MEL = test system: M19-MEL
UACC-257 = test system: UACC-257
OVCAR-5 = test system: OVCAR-5
HL-60 = test system: HL-60
CCRF-CEM = test system: CCRF-CEM
DMS-273 = test system: DMS-273

For `O=C(O)/C(Cl)=C(/Cl)C(=O)Nc1cccc(Cl)c1`, the GI50 (BT-549) was 19.4 µM (inactive), the GI50 (ACHN) was 18.5 µM (inactive) and the GI50 (HOP-62) was > 59.4 µM (inactive). For the same compound, the GI50 (DU-145) was > 100 µM (inactive), the GI50 (SN12C) was 20 µM (inactive) and the GI50 (SK-MEL-28) was 17.9 µM (inactive). The GI50 (T47D) was 22 µM (inactive), the GI50 (LXFL 529) was 15.4 µM (inactive) and the GI50 (A549) was 48.1 µM (inactive). For the same compound, the GI50 (HOP-92) was 14.6 µM (inactive), the GI50 (EKVX) was 17.9 µM (inactive) and the GI50 (MCF7) was 24.8 µM (inactive). The GI50 (SR) was 8.24 µM (inactive), the GI50 (MDA-N) was 17.3 µM (inactive) and the GI50 (MOLT-4) was 4.28 µM (inactive). For the same compound, the GI50 (HCC 2998) was 17.5 µM (inactive), the GI50 (SF-268) was 22.4 µM (inactive) and the GI50 (IGROV-1) was 18.8 µM (inactive). The GI50 (Hs-578T) was 24.8 µM (inactive), the GI50 (KM-20L2) was 19.7 µM (inactive) and the GI50 (RPMI-8226) was 12.1 µM (inactive). For the same compound, the GI50 (SNB-75) was 17.9 µM (inactive), the GI50 (XF498) was 18.1 µM (inactive) and the GI50 (LOX IMVI) was 13.8 µM (inactive). The GI50 (NCI-H226) was 24.8 µM (inactive), the GI50 (HCT-116) was 16.2 µM (inactive) and the GI50 (UO-31) was 18.5 µM (inactive). The GI50 (COLO 205) was 10.2 µM (inactive), the GI50 (K562) was 6.43 µM (inactive) and the GI50 (UACC-62) was 16.8 µM (inactive). For the same compound, the GI50 (U-251) was 28 µM (inactive), the GI50 (SF-295) was 30.5 µM (inactive) and the GI50 (SNB-19) was 31.7 µM (inactive). The GI50 (OVCAR-4) was 18.2 µM (inactive), the GI50 (CAKI-1) was 7.33 µM (inactive) and the GI50 (SF-539) was 17.6 µM (inactive). The GI50 (NCI-H522) was 4.35 µM (inactive), the GI50 (NCI-H23) was 15.9 µM (inactive) and the GI50 (DMS-114) was 16.6 µM (inactive). The GI50 (SW-620) was 12.6 µM (inactive), the GI50 (OVCAR-3) was 16.7 µM (inactive) and the GI50 (HT-29) was 20 µM (inactive). For the same compound, the GI50 (KM12) was 20.8 µM (inactive), the GI50 (TK-10) was 18.1 µM (inactive) and the GI50 (HOP-18) was 20.4 µM (inactive). For the same compound, the GI50 (MDA-MB-435) was 19.2 µM (inactive), the GI50 (HCT-15) was 16.6 µM and the GI50 (RXF 393) was 16.4 µM (inactive). The GI50 (DLD-1) was 15.6 µM (inactive), the GI50 (SNB-78) was 25.2 µM (inactive) and the GI50 (OVCAR-8) was 18.7 µM (inactive). The GI50 (SK-MEL-5) was 19 µM (inactive), the GI50 (M14) was 18.6 µM (inactive) and the GI50 (Malme-3M) was 16.9 µM (inactive). For the same compound, the GI50 (786-0) was 16.9 µM (inactive), the GI50 (NCI-H460) was > 87.9 µM (inactive) and the GI50 (MDA-MB-231) was 14.6 µM (inactive). The GI50 (SK-MEL-2) was 20.8 µM (inactive), the GI50 (SK-OV-3) was 15.7 µM (inactive) and the GI50 (A498) was > 64.1 µM (inactive). The GI50 (PC-3) was 18.5 µM (inactive), the GI50 (RXF 631) was 22 µM (inactive) and the GI50 (M19-MEL) was 15.6 µM (inactive). The GI50 (UACC-257) was 18 µM (inactive), the GI50 (OVCAR-5) was 19.7 µM (inactive) and the GI50 (HL-60) was 8.91 µM (inactive). The GI50 (CCRF-CEM) was 5.87 µM (inactive) and the GI50 (DMS-273) was 12.9 µM (inactive).
